Where a name gives a salt, the structure may show the parent alone.
How the values were obtained:
[1] = Absorbance spectra of the NHS dyes in PBS buffer (Example 8); assay type: physicochemical; settings: PBS buffer pH 7.2, 10 mg/ml in DMF diluted 1:1000
Method: Each of NHS-AMCA (MW=330 g/mole), V07-09111-NHS “8-isomer” (MW=874.1 g/mole), V07-0144-NHS “6-isomer” (MW=874.1 g/mole) and Alexa Fluor 350-NHS, Molecular Probes (Product #A10168) were reconstituted in DMF at 10 mg/ml and then diluted 1:1000 in PBS buffer (100 mM sodium phosphate, 150 mM NaCl; pH 7.2). Absorbance of the sample was evaluated from 440 nm to 240 nm on a UV Cary Spectrophotometer (Varian).

[2] = test system: biotin and mouse IgG coated white 96-well plates; experiment: Plate-based functional testing of streptavidin and GAM conjugates (Example 12); assay type: binding; settings: for signal sensitivities and intensities of bound conjugates compared to conjugates made with AMCA-NHS: GAM and SA conjugates made with the dye, 4 μg/ml, ex 346/em 442
Method: Streptavidin and GAM conjugates made in Example 11 were analyzed on biotin and mouse IgG coated white 96-well plates. The plates were coated by making a 1:1 serial dilution of biotinylated bovine serum albumin (BSA, Thermo Scientific) and mouse IgG with starting concentrations of 2 μg/ml and 10 μg/ml, respectively. One hundred μl of each dilution was added per well. The last column on each plate was considered blank (PBS buffer only). The plates were incubated overnight at 4° C. and then blocked by washing 3×200 μl with SuperBlock Blocking Buffer in PBS (Thermo Scientific). Plates were washed 2×200 μl PBS-Surfact-Amp 20 and 1×100 μl PBS. All of the conjugates were diluted to 4 μg/ml in PBS buffer, added to the plates (100 μl/well) and incubated for one hour at room temperature (RT) (about 20° C. to about 22° C.). The plates were then washed 2×200 μl with PBS containing 0.05% Surfact-Amp 20 and 1×200 μl PBS. Finally 100 μl PBS buffer was added to the wells. The fluorescence intensity of the bound conjugate was measured on Tecan Safire using optimal Alexa Fluor 350 setting (ex 346/em 442) and optimal gain. FIGS. 7A and 7B show relative fluorescent units (RFU) and signal to background ratios (S/B), respectively, of goat anti-mouse antibodies (GAM) conjugated to amino-methyl-coumarin-acetate (AMCA), V07-09111-NHS, V07-09144-NHS, and Alexa Fluor 350-NHS. FIGS. 7C and 7D show RFU and S/B, respectively, of streptavidin (SA) conjugated to AMCA, V07-09111, V07-09144, and Alexa Fluor 350.

[3] = UV-Vis absorption and emission maxima given with the synthesis examples; assay type: physicochemical
[4] = Absorption and emission spectra in water and ethanol (Example 9); assay type: physicochemical; settings: for emission spectrum maximum: excitation 345 nm
Method: Absorption spectra of compounds V07-09111 and V07-09144 (concentrations between 10 μM and 50 μM) in water and ethanol (spectral grade) were recorded (Analytik Jena Specord 205 absorption spectrometer, quartz cuvettes with a pathlength of 1 cm). For emission spectra determination, the solutions were diluted in PBS (100 mM, pH 7.4, 100 mM sodium chloride, 5 mM sodium azide) to an absorbance of around 0.1 at a 1 cm pathlength; emission spectra were recorded on a JASCO FP-6600 fluorescence spectrometer; excitation wavelength 345 nm, excitation and emission slits were 3 nm and 6 nm, respectively. Both absorption and emission spectra were normalized to the maxima for presentation in FIGS. 2, 3, 4, and 5.
FIGS. 2 and 3 show the absorbance and emission spectra of V07-09144 in water and ethanol, respectively. FIGS. 4 and 5 show the absorbance and emission spectra of V07-09111 in water and ethanol, respectively. The absorbance and emission spectra of V07-09111 are 350 nm and 430 nm in water, and 351 nm and 443 nm in ethanol, respectively. The absorbance and emission spectra of V07-09144 are 350 nm and 440 nm in water, and 351 nm and 443 nm in ethanol, respectively.

[5] = test system: Lamin A; experiment: Immunofluorescence detection of Lamin A in HeLa cells with dye-GAM conjugates (Example 13); assay type: cell-based, human; settings: GAM conjugates made with the dye, 4 μg/ml, similar molar excesses
Method: Lamin A was stained in HeLa cells to compare […]-09111-GAM and […]-09144GAM to AMCA-GAM and Alexa Fluor 350-GAM. HeLa cells were seeded at about 10,000 cells/well in a 96-well clear bottom collagen coated tissue culture plate (BD Falcon BioCoat collagen) and cultured overnight. To fix the cells, the medium was removed and replaced at 100 μl/well with freshly prepared 4% paraformaldehyde (EMS Product #15710-S) diluted in 8 mM sodium phosphate, 2 mM potassium phosphate, 140 mM sodium chloride and 10 mM potassium chloride (PBS pH 7.4) and the cells were incubated at room temperature for 15 minutes. After 15 minutes, the cells were washed 3 times with PBS. After removal of PBS the cells were permeabilized with 100 μl/well of PBS containing 0.1% Surfact-Amps X-100. The permeabilization was carried out at room temperature (RT) for 15 minutes and then the cells were washed two times with PBS. The cells were blocked at RT for 30 minutes with (100 μl/well) PBS containing 0.1% Triton X-100 and supplemented with 2% of BlockerTM BSA (Thermo Scientific). […] The images shown in FIGS. 8A-H were acquired using the appropriate shift free optical filter set with a […] on Zeiss Axio Observer Z1 fluorescence microscope using an ORCA-ER-1394 Hamamatsu, CCD Digital Camera and the AxioVison Release 4.7 Software. […]

absorbance maxima (AbsMax) [1]	λem ([3]; UV-Vis (PBS))	λmax ([3]; UV-Vis (PBS))	SMILES	signal sensitivities and intensities of bound conjugates compared to conjugates made with AMCA-NHS [2]	also measured
352 nm	430 nm	352 nm	Nc1ccc2c3c(c(=O)oc2c1S(=O)(=O)O)CCC3C(CC(=O)NCCCC(=O)ON1C(=O)CCC1=O)S(=O)(=O)O (stereo not drawn) [V07-09111-NHS, 4-[3-(7-amino-4-oxo-6-sulfo-1,2,3,4-tetrahydro-cyclopenta[c]chromen-1-yl)-3-sulfo-propionylamino]-butyric acid NHS ester bis diisopropyethylammonium salt]	higher signal sensitivities and intensities	specificity of staining and background compared to NHS-AMCA or NHS-Alexa Fluor 350 conjugates [5]: higher specificity of staining for the target with lower background
	435 nm	350 nm	Nc1c(S(=O)(=O)O)cc2c3c(c(=O)oc2c1S(=O)(=O)O)CCC3C(CC(=O)O)S(=O)(=O)[O-].[Na+] (stereo not drawn) [V07-09140, 3-(7-amino-4-oxo-6,8-disulfo-1,2,3,4-tetrahydro-cyclopenta[c]chromen-1-yl)-3-sulfo-propionic acid tris sodium salt]		
	440 nm	349 nm	Nc1cc2oc(=O)c3c(c2cc1S(=O)(=O)O)C(C(CC(=O)O)S(=O)(=O)O)CC3 (stereo not drawn) [V07-09142, 3-(7-amino-4-oxo-8-sulfo-1,2,3,4-tetrahydro-cyclopenta[c]chromen-1-yl)-3-sulfo propionic acid bis sodium salt]		
347 nm			Nc1cc2oc(=O)c3c(c2cc1S(=O)(=O)O)C(C(CC(=O)NCCCC(=O)ON1C(=O)CCC1=O)S(=O)(=O)O)CC3 (stereo not drawn) [V07-09144-NHS]	higher signal sensitivities and intensities	specificity of staining and background compared to NHS-AMCA or NHS-Alexa Fluor 350 conjugates [5]: higher specificity of staining for the target with lower background

More lines, now with the values behind:

SMILES	absorbance maxima (AbsMax) [1]	λem ([3]; UV-Vis (PBS))	λmax ([3]; UV-Vis (PBS))	signal sensitivities and intensities of bound conjugates compared to conjugates made with AMCA-NHS [2]	also measured
Cc1c(CC(=O)ON2C(=O)CCC2=O)c(=O)oc2cc(N)c(S(=O)(=O)O)cc12 [Alexa Fluor 350-NHS, reference compound]	345 nm			higher signal sensitivities and intensities	
Cc1c(CC(=O)ON2C(=O)CCC2=O)c(=O)oc2cc(N)ccc12 [NHS-AMCA, succinimidyl-7-amino-4-methylcoumarin-3-acetate, reference compound]	349 nm				
Nc1ccc2c3c(c(=O)oc2c1S(=O)(=O)O)CCC3C(CC(=O)O)S(=O)(=O)[O-].[Na+] (stereo not drawn) [V07-09089, 3-(7-amino-4-oxo-6-sulfo-1,2,3,4-tetrahydro-cyclopenta[c]chromen-1-yl)-3-sulfopropionic acid bis sodium salt]		429 nm	352 nm		binding in a functional plate assay among the DY-350 dyes ([2]; comparison among the DY-350 dyes): lower binding in a functional plate assay
CCOC(=O)CCC1CCc2c1c1ccc(NC(=O)OCC)cc1oc2=O (stereo not drawn) [V07-09096, 3-(7-ethoxycarbonylamino-4-oxo-1,2,3,4-tetrahydro-cyclopenta[c]chromen-1-yl)propionic acid ethylester]					ε ([3]; in methanol): 23000 L/mol/cm; λem ([3]; in methanol): 393 nm; λmax ([3]; in methanol): 328 nm
Nc1ccc2c3c(c(=O)oc2c1S(=O)(=O)O)CCC3C(CC(=O)NCCCC(=O)O)S(=O)(=O)O (stereo not drawn) [V07-09111, 4-[3-(7-amino-4-oxo-6-sulfo-1,2,3,4-tetrahydro-cyclopenta[c]chromen-1-yl)-3-sulfo-propionylamino]-butyric acid]		430 nm	352 nm		absorbance spectrum maximum ([4]; in ethanol): 351 nm; emission spectrum maximum ([4]; in ethanol): 443 nm; absorbance spectrum maximum ([4]; in water): 350 nm; emission spectrum maximum ([4]; in water): 430 nm

— US8039648B2, “Compounds used as dyes comperable to Alexa Fluor 350 dyes” (Pierce Biotechnology, Inc., priority 2009, dated 2011)
